Measurements reported in US9248162B2, “Factor H for treatment of rheumatoid arthritis” (Baxter International Inc., priority 2013, dated 2016).
“And” between values parts separate entries of the source, which are not always exact repeats. Equal values may be shown once. “Also recorded” adds a separate entry of the source. Marks after values point to notes of the source that are not given here.

Columns and labels:
Type in all cases: in vivo, Balb C mice
[1] = system: collagen antibody-induced arthritis; assay: Mouse CAIA: ankle histology scores (H & E); parameters: key to Score From H & E: Inflammation: 0: normal; 1: minimal infiltration of inflammatory cells in periarticular tissue; 2: mild infiltration; 3: moderate infiltration with moderate edema; 4: marked infiltration with marked edema; 5: severe infiltration with severe edema; key to Exostosis, Summary (significance) / Composite, Summary (significance) / Pannus, Summary (significance) / Cartilage, Summary (significance) / Inflammation, Summary (significance): ns: = not significant; *: = P < 0.05; **: = P < 0.01; ***: = P < 0.001; Composite Biohistopathology Score, group value / Composite Biohistopathology Score: scale not given here
Experimental: (§1) Balb C mice (n=10 per cohort) were used to determine the efficacy of Factor H (FH) during […]. The mice were treated with ArthritoMAb (anti-collagen) antibody cocktail (2 mg, i.v.) on day 1, followed 7 days later with an injection of LPS (50 μg, i.p.). On day 8, hind paw volumes were measured for each animal and distributed to various treatment groups.
(§2) Dosing with the different agents was started on day 8 as described in Table 3.
(§3) Hind paw volumes were measured on day 8, 11, 12, 13, 15, 19 and 22 (endpoint). The age at start date was 7 to 9 weeks. Body weights were measured bi-weekly to the endpoint (Table 4). At the endpoint, tissue samples were processed for histology and submitted to a pathologist for independent analysis. Sampling 1 was performed at the endpoint. The hind limbs were preserved in 10% formalin. Sampling 2 was performed at the endpoint for group 4 animals. Blood was collected by terminal cardiac puncture. The blood was processed for anti-coagulant. The kidneys were additionally preserved in formalin and followed with 70% EtOH. Samples were scored for inflammation, pannus (granulation tissue), cartilage damage, bone resorption and exostosis (Table 5).

[2] = system: collagen antibody-induced arthritis; assay: Mouse CAIA: ankle histology scores (H & E); parameters: key: 0: normal; 1: minimal infiltration of pannus in cartilage and subchondral bone; 2: mild infiltration; 3: moderate infiltration; 4: marked infiltration; 5: severe infiltration; details: individual animal, score 0-5, endpoint day 22, listed as Group 4
Experimental: as §1, §2, §3

[3] = system: collagen antibody-induced arthritis; assay: Mouse CAIA: hind paw / footpad volume (swelling, disease burden); parameters: Mean Disease Burden / Total Disease Burden (AUC) / Hind Limb Volume, Mean Diff. / Total Disease, Mean Diff.: unit not given here; details: for % Disease Suppression / Total Disease Burden (AUC): days 8-22
Experimental: as §1
Factor H was formulated in 20 mM Citrate, 150 mM NaCl, pH=6. […] Ethanercept was formulated as Enbrel™ in saline. Vehicle was formulated in 20 mM Citrate, 150 mM NaCl, pH=6. […] The dosing volume for Factor H and BX12 was 25 mL/kg (0.500 mL/20 g mouse) and adjusted accordingly for body weight.
as §2
as §3, with “The” for “Hind paw volumes were measured on day 8, 11, 12, 13, 15, 19 and 22 (endpoint). The”

[4] = Mouse CAIA: body weight and tolerability
Experimental: as §1, §2, §3

[5] = system: collagen antibody-induced arthritis; assay: Mouse CAIA: ankle histology scores (H & E); parameters: key: 0: normal; 1: minimal to mild loss of staining density with no obvious chondrocyte loss or collagen disruption; 2: mild loss of staining density with focal mild (superficial) chondrocyte loss and/or collagen disruption; 3: moderate loss of staining density with multifocal moderate (depth to middle zone) chondrocyte loss and/or collagen disruption; 4: marked loss of staining density with multifocal marked (depth to deep zone) chondrocyte loss and/or collagen disruption; 5: severe diffuse loss of staining density with multifocal severe (depth to tide mark) chondrocyte loss and/or collagen disruption; details: individual animal, score 0-5, endpoint day 22, listed as Group 4
Experimental: as §1, §2, §3

[6] = system: collagen antibody-induced arthritis; assay: Mouse CAIA: ankle histology scores (H & E); parameters: key: 0: normal; 1: minimal; 2: mild; 3: moderate; 4: marked; 5: severe; details: individual animal, score 0-5, endpoint day 22, listed as Group 4
Experimental: as §1, §2, §3

[7] = Vehicle vs agent, Dunn's Multiple Comparison Test
[8] = ankle, group mean ± spread, 10 animals, score 0-5
[9] = histopathology score, graded 1-5, hind limbs at endpoint, group value
[10] = Vehicle vs agent, Dunnett's Multiple Comparison Test
[11] = individual animal, listed as BX12

## Factor H
[1]; [7]
  Cartilage, Difference in rank sum: −0.75
  Cartilage, Summary (significance): ns
  Composite, Difference in rank sum: 3.25
  Composite, Summary (significance): ns
  Exostosis, Difference in rank sum: 11.5
  Exostosis, Summary (significance): * (= P < 0.05)
  Inflammation, Difference in rank sum: 6.45
  Inflammation, Summary (significance): ns
  Pannus, Difference in rank sum: 1.9
  Pannus, Summary (significance): ns
[1]; ankle, group mean ± spread, 10 animals
  Composite Biohistopathology Score, group value: 3.1 ± 1.2
[1]; [8]
  Score From H & E: Bone Resorption, group value: 0.3 ± 0.2
  Score From H & E: Cartilage Damage, group value: 0.6 ± 0.2
  Score From H & E: Inflammation, group value: 1.0 ± 0.3
  Score From H & E: Pannus, group value: 0.9 ± 0.3
  Score From H & E: Periosteal/Exostotic Changes, group value: 0.3 ± 0.3
[1]; ankle, individual animal, endpoint day 22, listed as Group 4
  Composite Biohistopathology Score: 1 (3×) and 4 and 5 and 2 and 0 (2×) and 13 and 3
[1]; ankle, individual animal, score 0-5, endpoint day 22, listed as Group 4
  Score From H & E: Inflammation: 0 (4×) and 1 (3×) and 2 (2×) and 3
[1]; histopathology composite, hind limbs at endpoint, group value
  Composite Score: 3.1 ± 1.2^ns
[1]; [9]
  Bone Resorption: 0.3 ± 0.2^ns
  Cartilage Damage: 0.6 ± 0.2^ns
  Exostosis: 0.3 ± 0.3
  Inflammation: 1.0 ± 0.3^ns
  Pannus: 0.9 ± 0.3^ns
[1]; result in words (Table 8, FIG. 11), listed as FH
  histopathology: inhibits exostosis; also recorded: trend toward improved inflammation and bone resorption
[2]
  Score From H & E: Pannus: 1 (4×) and 3
[3]; [10]
  Hind Limb Volume, Mean Diff.: 0.1199
  Hind Limb Volume, Summary (significance): *** (= P < 0.001)
  Total Disease, Mean Diff.: 1.88
  Total Disease, Summary (significance): *** (= P < 0.001)
[3]; day 8 of study, group mean, n 10
  Hind paw volume: 0.35 mL
[3]; day 8 of study, individual animal, listed as BX12
  Hind paw volume: 0.41 mL and 0.4 mL and 0.38 mL and 0.37 mL and 0.35 mL and 0.34 mL and 0.32 mL (2×) and 0.3 mL (2×)
[3]; day 11 of study, group mean, n 10
  Hind paw volume: 0.39 mL
[3]; day 11 of study, individual animal, listed as BX12
  Hind paw volume: 0.44 mL and 0.36 mL and 0.38 mL and 0.4 mL and 0.34 mL and 0.39 mL and 0.46 mL and 0.43 mL and 0.35 mL
[3]; day 12 of study, group mean, n 10
  Hind paw volume: 0.44 mL
[3]; day 12 of study, individual animal, listed as BX12
  Hind paw volume: 0.5 mL and 0.56 mL and 0.52 mL and 0.4 mL and 0.35 mL and 0.55 mL and 0.37 mL and 0.34 mL and 0.3 mL and 0.45 mL
[3]; day 13 of study, group mean, n 10
  Hind paw volume: 0.36 mL
[3]; day 13 of study, individual animal, listed as BX12
  Hind paw volume: 0.32 mL (2×) and 0.54 mL and 0.36 mL and 0.29 mL (2×) and 0.43 mL and 0.37 mL and 0.39 mL and 0.33 mL
[3]; day 16 of study, group mean, n 10
  Hind paw volume: 0.31 mL
[3]; day 16 of study, individual animal, listed as BX12
  Hind paw volume: 0.29 mL (2×) and 0.35 mL (2×) and 0.32 mL and 0.28 mL (3×) and 0.42 mL and 0.27 mL
[3]; day 19 of study, group mean, n 10
  Hind paw volume: 0.34 mL
[3]; day 19 of study, individual animal, listed as BX12
  Hind paw volume: 0.3 mL (2×) and 0.4 mL and 0.42 mL and 0.31 mL and 0.25 mL and 0.45 mL and 0.29 mL (2×) and 0.36 mL
[3]; day 22 of study, group mean, n 10
  Hind paw volume: 0.35 mL
[3]; day 22 of study, individual animal, listed as BX12
  Hind paw volume: 0.38 mL and 0.39 mL and 0.32 mL (2×) and 0.33 mL and 0.42 mL and 0.35 mL and 0.34 mL (2×) and 0.29 mL
[3]; group mean, n 10
  % Disease Suppression: 97.33%
  Total Disease Burden (AUC): 0.05
[3]; [11]
  % Disease Suppression: 140.2% and 93.5% and 107.8% and 121.6% and 130.8% and 38.3% and 96.1% and 96.9% and 65.5% and 52.1%
  Total Disease Burden (AUC): −0.78 and 0.13 and −0.15 and −0.42 and −0.60 and 1.19 and 0.08 (2×) and 0.55 and 0.35
[3]; difference between mean combined foot pad volumes on day 8 and on median day of maximal swelling, vehicle 0.21
  Maximum Δ Mean Volume: 0.12*** ml
[3]; group mean AUC of combined footpad volume over baseline, days 8 to 22, vehicle 1.93
  Mean Disease Burden: 0.05***
[3]; percent decrease in total disease burden relative to vehicle
  % Disease Suppression (vs Vehicle): 97.3%
[3]; result in words (Table 9, FIG. 9), listed as FH
  foot pad / hind limb swelling: lower mean change in foot pad swelling on the day of maximal swelling compared to vehicle; also recorded: performed well compared to Etanercept
[4]; mouse, in vivo
  Mean Body Weigh at Nadir: −7.4%
  body weights vs. vehicle controls: comparable to vehicle controls
[4]; result in words, FH 440 mg/kg i.p. qodx7
  treatment-related deaths: no treatment-related deaths
[5]
  Score From H & E: Cartilage Damage: 1 (4×) and 2
[6]
  Score From H & E: Bone Resorption: 1 and 2
  Score From H & E: Periosteal/Exostotic Changes: 3
